For 27 molecules, EC50 results are on record in US20050234046A1 (Kalypsys, Inc., priority 2004, published 2005).

Holding throughout (test): Transient transfection (transactivation) assay in CV-1 cells, GAL4-PPAR chimera, luciferase reporter
What all share (assay type): cell-based
For orientation: A reporter such as luciferase makes a cellular process visible.

The target in one assay is T1, PPAR gamma (Homo sapiens, UniProt P37231).
T1 construct: expressed in transfected cells; host or cells: CV-1 cells
T1 sequence (P37231 238-503 limits assumed): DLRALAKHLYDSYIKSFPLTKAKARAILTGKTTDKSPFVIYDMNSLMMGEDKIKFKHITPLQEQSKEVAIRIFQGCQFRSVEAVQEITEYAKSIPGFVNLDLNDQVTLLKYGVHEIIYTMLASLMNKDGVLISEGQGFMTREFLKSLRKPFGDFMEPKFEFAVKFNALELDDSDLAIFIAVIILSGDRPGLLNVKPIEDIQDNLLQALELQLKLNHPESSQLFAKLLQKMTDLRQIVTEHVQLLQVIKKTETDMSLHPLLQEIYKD

A further assay concerns the target T2, PPAR alpha (Homo sapiens, UniProt Q07869).
T2 construct: expressed in transfected cells; host or cells: CV-1 cells
T2 sequence (Q07869 239-466 limits assumed): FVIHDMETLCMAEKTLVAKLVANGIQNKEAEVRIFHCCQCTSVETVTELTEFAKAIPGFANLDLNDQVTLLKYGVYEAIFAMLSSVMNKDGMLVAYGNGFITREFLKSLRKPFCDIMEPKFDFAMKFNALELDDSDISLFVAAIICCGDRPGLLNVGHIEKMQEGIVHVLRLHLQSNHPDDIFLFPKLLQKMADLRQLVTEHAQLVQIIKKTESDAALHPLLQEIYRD
Put shortly:
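GAL4 DNA-binding domain fused to PPAR ligand binding domain, co-transfected into CV-1 cells with a luciferase reporter carrying four or five GAL4 sites. Replated cells in phenol-red free DME with 5% delipidated calf serum were treated with compound or 1% DMSO for 20-24 hours; luciferase read for EC50 and efficacy.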

In a further assay the target is T3, PPAR delta (Homo sapiens, UniProt Q03181).
T3 construct: expressed in transfected cells; host or cells: CV-1 cells
T3 sequence (Q03181 211-439 limits assumed): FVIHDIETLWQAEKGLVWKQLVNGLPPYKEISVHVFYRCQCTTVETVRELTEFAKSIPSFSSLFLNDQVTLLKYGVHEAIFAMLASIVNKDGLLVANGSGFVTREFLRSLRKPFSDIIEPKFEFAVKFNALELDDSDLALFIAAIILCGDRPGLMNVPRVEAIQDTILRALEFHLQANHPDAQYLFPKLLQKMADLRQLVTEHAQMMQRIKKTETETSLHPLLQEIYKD

Description for PPAR gamma: Compounds may be screened for functional potency in transient transfection assays in CV-1 cells or other cell types for their ability to activate the PPAR subtypes (transactivation assay). A previously established chimeric receptor system was utilized to allow comparison of the relative transcriptional activity of the receptor subtypes on the same synthetic response element and to prevent endogenous receptor activation from complicating the interpretation of results. […] The ligand binding domains for murine and human PPAR-alpha, PPAR-gamma, and PPAR-delta are each fused to the yeast transcription factor GAL4 DNA binding domain. CV-1 cells were transiently transfected with expression vectors for the respective PPAR chimera along with a reporter construct containing four or five copies of the GAL4 DNA binding site driving expression of luciferase. After 8-16 h, the cells are replated into multi-well assay plates and the media is exchanged to phenol-red free DME medium supplemented with 5% delipidated calf serum. 4 hours after replating, cells were treated with either compounds or 1% DMSO for 20-24 hours. Luciferase activity was then assayed with Britelite (Perkin Elmer) following the manufacturer's protocol and measured with either the Perkin Elmer Viewlux or Molecular Devices Acquest Xsee, for example, Kliewer, S. A., et. al. Cell 1995, 83, 813-819). Rosiglitazone is used as a positive control in the hPPAR-γ assay. Wy-14643 and GW7647 is used as a positive control in the hPPAR-α assay. GW501516 is used as the positive control in the hPPAR-δ assay.

For orientation: EC50 means the concentration needed to bring the measured effect to its halfway point. `COc1ccc(N2CCN(S(=O)(=O)c3cc(CC(=O)O)ccc3C)CC2)cc1OC` [Example 157, {3-[4-(3,4-Dimethoxy-phenyl)-piperazine-1-sulfonyl]-4-methyl-phenyl}-acetic acid]: the 50% effective concentration (EC50) at PPAR gamma, at PPAR alpha and on PPAR delta was over 100 µM each time.

As for `Cc1ccc(CC(=O)O)cc1S(=O)(=O)N1CCN(c2ccc(C(F)(F)F)cc2[N+](=O)[O-])CC1` [Example 158, {4-Methyl-3-[4-(2-nitro-4-trifluoromethyl-phenyl)-piperazine-1-sulfonyl]-phenyl}-acetic acid], the EC50 is over 100 µM at PPAR gamma, over 100 µM at PPAR alpha and 5 to 100 µM on PPAR delta.

For the molecule `COc1ccccc1N1CCN(S(=O)(=O)c2cc(CC(=O)O)ccc2C)CC1` [Example 159, {3-[4-(2-Methoxy-phenyl)-piperazine-1-sulfonyl]-4-methyl-phenyl}-acetic acid], the EC50 at PPAR gamma, on PPAR alpha and on PPAR delta was over 100 µM throughout.

As to `Cc1ccc(C)c(N2CCN(S(=O)(=O)c3cc(CC(=O)O)ccc3C)CC2)c1` [Example 160, {3-[4-(2,5-Dimethyl-phenyl)-piperazine-1-sulfonyl]-4-methyl-phenyl}-acetic acid], the values for the concentration giving a half-maximal response (EC50) on PPAR gamma, at PPAR alpha and on PPAR delta were 5 to 100 µM, over 100 µM and over 100 µM, respectively.

Turning to `Cc1ccc(CC(=O)O)cc1S(=O)(=O)N1CCN(CC2CCCCC2)CC1` [Example 161, [3-(4-Cyclohexylmethyl-piperazine-1-sulfonyl)-4-methyl-phenyl]-acetic acid], the concentration giving a half-maximal response (EC50) at PPAR gamma is 5 to 100 µM; on PPAR alpha it was over 100 µM; on PPAR delta, over 100 µM.

For the molecule `Cc1ccc(CC(=O)O)cc1S(=O)(=O)N1CCN(c2ccccc2C#N)CC1` [Example 162, {3-[4-(2-Cyano-phenyl)-piperazine-1-sulfonyl]-4-methyl-phenyl}-acetic acid], the EC50 on PPAR gamma, on PPAR alpha and on PPAR delta was over 100 µM each time.

Consider `Cc1ccc(CC(=O)O)cc1S(=O)(=O)N1CCN(c2cnccn2)CC1` [Example 163, [4-Methyl-3-(2,3,5,6-tetrahydro-[1,2]bipyrazinyl-4-sulfonyl)-phenyl]-acetic acid], for which the half-maximal effective concentration (EC50) at PPAR gamma, on PPAR alpha and on PPAR delta was over 100 µM throughout.

As to `Cc1ccc(CC(=O)O)cc1S(=O)(=O)N1CCN(C(c2ccccc2)c2ccc(Cl)cc2)CC1` (stereo not drawn) [Example 164], the values for the EC50 on PPAR gamma, at PPAR alpha and on PPAR delta were 5 to 100 µM, over 100 µM and 5 to 100 µM, respectively.

As for `Cc1ccc(CC(=O)O)cc1S(=O)(=O)N1CCN(c2ccc(Cl)c(Cl)c2)CC1` [Example 165, {3-[4-(3,4-Dichloro-phenyl)-piperazine-1-sulfonyl]-4-methyl-phenyl}-acetic acid], the EC50 on PPAR gamma was 5 to 100 µM; at PPAR alpha, over 100 µM; on PPAR delta it was under 5 µM.

For `Cc1cc(CC(=O)O)cc(S(=O)(=O)N2CCN(c3ccc(Cl)c(Cl)c3)CC2)c1` [Example 166, {3-[4-(3,4-Dichloro-phenyl)-piperazine-1-sulfonyl]-5-methyl-phenyl}-acetic acid], the values for the concentration for a half-maximal effect (EC50) at PPAR gamma, at PPAR alpha and on PPAR delta were 5 to 100 µM, 5 to 100 µM and under 5 µM, respectively.

With `Cc1cc(CC(=O)O)cc(S(=O)(=O)N2CCN(c3ccc(Cl)cc3)CC2)c1` [Example 167, {3-[4-(4-Chloro-phenyl)-piperazine-1-sulfonyl]-5-methyl-phenyl}-acetic acid], the EC50 on PPAR gamma was 5 to 100 µM; at PPAR alpha, over 100 µM; at PPAR delta it was under 5 µM.

`Cc1cccc(N2CCN(S(=O)(=O)c3cc(C)cc(CC(=O)O)c3)CC2C)c1` (stereo not drawn) [Example 168, [3-Methyl-5-(3-methyl-4-m-tolyl-piperazine-1-sulfonyl)-phenyl]-acetic acid]: the concentration giving a half-maximal response (EC50) on PPAR gamma is 5 to 100 µM; on PPAR alpha, over 100 µM; on PPAR delta, 5 to 100 µM.

Turning to `Cc1cc(CC(=O)O)cc(S(=O)(=O)N2CCN(c3ccc(C)c(C)c3)CC2)c1` [Example 169, {3-[4-(3,4-Dimethyl-phenyl)-piperazine-1-sulfonyl]-5-methyl-phenyl}-acetic acid], the values for the EC50 on PPAR gamma, on PPAR alpha and on PPAR delta were 5 to 100 µM, over 100 µM and 5 to 100 µM, respectively.

On to `Cc1cc(CC(=O)O)cc(S(=O)(=O)N2CCN(c3ccc(F)cc3F)CC2)c1` [Example 170], for which the concentration for a half-maximal effect (EC50) is over 100 µM on PPAR gamma, over 100 µM at PPAR alpha and 5 to 100 µM at PPAR delta.

For the molecule `Cc1cc(CC(=O)O)cc(S(=O)(=O)N2CCN(c3cccc(Cl)c3)CC2)c1` [Example 171, {3-[4-(3-Chloro-phenyl)-piperazine-1-sulfonyl]-5-methyl-phenyl}-acetic acid], the EC50 was 5 to 100 µM at PPAR gamma, over 100 µM at PPAR alpha and 5 to 100 µM at PPAR delta.

`Cc1cc(CC(=O)O)cc(S(=O)(=O)N2CCN(c3ccccc3F)CC2)c1` [Example 172, {3-[4-(2-Fluoro-phenyl)-piperazine-1-sulfonyl]-5-methyl-phenyl}-acetic acid]: the concentration giving a half-maximal response (EC50) on PPAR gamma, on PPAR alpha and at PPAR delta was over 100 µM throughout.

Turning to `Cc1cc(CC(=O)O)cc(S(=O)(=O)N2CCN(c3ccc(F)cc3)CC2)c1` [Example 173, {3-[4-(4-Fluoro-phenyl)-piperazine-1-sulfonyl]-5-methyl-phenyl}-acetic acid], the EC50 at PPAR gamma was over 100 µM; at PPAR alpha it was over 100 µM; on PPAR delta it was 5 to 100 µM.

In the case of `Cc1cc(CC(=O)O)cc(S(=O)(=O)N2CCN(c3ccccc3)CC2)c1` [Example 174, [3-Methyl-5-(4-phenyl-piperazine-1-sulfonyl)-phenyl]-acetic acid], the half-maximal effective concentration (EC50) on PPAR gamma, on PPAR alpha and at PPAR delta was over 100 µM throughout.

`Cc1ccc(S(=O)(=O)N2CCN(c3ccc(Cl)c(Cl)c3)CC2)cc1CC(=O)O` [Example 175, {5-[4-(3,4-Dichloro-phenyl)-piperazine-1-sulfonyl]-2-methyl-phenyl}-acetic acid]: the EC50 on PPAR gamma was 5 to 100 µM; at PPAR alpha it was 5 to 100 µM; at PPAR delta it was under 5 µM.

On to `Cc1ccc(S(=O)(=O)N2CCN(c3ccc(Cl)cc3)CC2)cc1CC(=O)O` [Example 176, {5-[4-(4-Chloro-phenyl)-piperazine-1-sulfonyl]-2-methyl-phenyl}-acetic acid], for which the values for the EC50 on PPAR gamma, on PPAR alpha and on PPAR delta were 5 to 100 µM, over 100 µM and under 5 µM, respectively.

Turning to `Cc1cccc(N2CCN(S(=O)(=O)c3ccc(C)c(CC(=O)O)c3)CC2C)c1` (stereo not drawn) [Example 177, [2-Methyl-5-(3-methyl-4-m-tolyl-piperazine-1-sulfonyl)-phenyl]-acetic acid], the concentration giving a half-maximal response (EC50) on PPAR gamma is 5 to 100 µM; on PPAR alpha it was over 100 µM; at PPAR delta it was 5 to 100 µM.

With `Cc1ccc(S(=O)(=O)N2CCN(CCc3ccccc3)CC2)cc1CC(=O)O` [Example 178, [2-Methyl-5-(4-phenethyl-piperazine-1-sulfonyl)-phenyl]-acetic acid], the EC50 was 5 to 100 µM at PPAR gamma, over 100 µM on PPAR alpha and 5 to 100 µM at PPAR delta.

As for `COc1ccc(N2CCN(S(=O)(=O)c3ccc(C)c(CC(=O)O)c3)CC2)cc1OC` [Example 179, {5-[4-(3,4-Dimethoxy-phenyl)-piperazine-1-sulfonyl]-2-methyl-phenyl}-acetic acid], the EC50 at PPAR gamma, on PPAR alpha and on PPAR delta was over 100 µM throughout.

Consider `Cc1ccc(S(=O)(=O)N2CCN(c3ccc(F)cc3F)CC2)cc1CC(=O)O` [Example 180, {5-[4-(2,4-Difluoro-phenyl)-piperazine-1-sulfonyl]-2-methyl-phenyl}-acetic acid], for which the 50% effective concentration (EC50) at PPAR gamma is 5 to 100 µM; on PPAR alpha, over 100 µM; at PPAR delta, 5 to 100 µM.

For `Cc1ccc(S(=O)(=O)N2CCN(c3ccccc3)CC2)cc1CC(=O)O` [Example 181, [2-Methyl-5-(4-phenyl-piperazine-1-sulfonyl)-phenyl]-acetic acid], the results for the EC50 on PPAR gamma, on PPAR alpha and on PPAR delta were 5 to 100 µM, over 100 µM and 5 to 100 µM, respectively.

Turning to `Cc1ccc(S(=O)(=O)N2CCN(c3ccc(C(F)(F)F)cn3)CC2)cc1CC(=O)O` [Example 182, {2-Methyl-S-[4-(5-trifluoromethyl-pyridin-2-yl)-piperazine-1-sulfonyl]-phenyl}-acetic acid], the concentration giving a half-maximal response (EC50) was under 5 µM on PPAR gamma, 5 to 100 µM on PPAR alpha and under 5 µM on PPAR delta.

Take `Cc1ccc(S(=O)(=O)N2CCN(c3ccc(C(F)(F)F)cc3)CC2)cc1CC(=O)O` [Example 183, {2-Methyl-5-[4-(4-trifluoromethyl-phenyl)-piperazine-1-sulfonyl]-phenyl}-acetic acid]: the EC50 is 5 to 100 µM on PPAR gamma, 5 to 100 µM at PPAR alpha and under 5 µM at PPAR delta.
